Data taken from ChEMBL document CHEMBL1201862, “PubChem BioAssay data set” (2004).
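Results reflect a 48-hour exposure of cells in 96-well plates to compound at five concentrations. GI50: concentration for 50% inhibition of growth.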 Active and inactive are the calls of the source. No stated cut-off is given here; in the data, active = GI50 up to about 1.1 µM and inactive = higher.

Tests used:
Test in all cases: inhibition of tumour cell growth, NCI panel, 48 h
ACHN = tested on: ACHN
BT-549 = tested on: BT-549
CAKI-1 = tested on: CAKI-1
COLO 205 = tested on: COLO 205
DU-145 = tested on: DU-145
EKVX = tested on: EKVX
HOP-62 = tested on: HOP-62
KM12 = tested on: KM12
LOX IMVI = tested on: LOX IMVI
MDA-MB-231 = tested on: MDA-MB-231
MDA-MB-435 = tested on: MDA-MB-435
NCI/ADR-RES = tested on: NCI/ADR-RES
OVCAR-3 = tested on: OVCAR-3
OVCAR-4 = tested on: OVCAR-4
RXF 393 = tested on: RXF 393
SF-539 = tested on: SF-539
SK-MEL-2 = tested on: SK-MEL-2
SK-OV-3 = tested on: SK-OV-3
SNB-19 = tested on: SNB-19
UACC-62 = tested on: UACC-62

Measured: GI50

Nc1ccc(S(=O)(=O)NCc2nccs2)cc1
inactive: ACHN 23.4 µM | BT-549 20.1 µM | CAKI-1 28.4 µM | COLO 205 18.4 µM | DU-145 29 µM | EKVX 17.3 µM | HOP-62 36.8 µM | KM12 20.9 µM | LOX IMVI 19.9 µM | MDA-MB-231 24.9 µM | MDA-MB-435 19.6 µM | NCI/ADR-RES 23.8 µM | OVCAR-3 34 µM | OVCAR-4 29.3 µM | RXF 393 29.9 µM | SF-539 19.1 µM | SK-MEL-2 20 µM | SK-OV-3 32.3 µM | SNB-19 29.1 µM | UACC-62 17.5 µM

CCOC(=O)C(NC(=O)c1cccc(Cl)c1)(N1CCN(c2cc3c(cc2F)c(=O)c(C(=O)O)cn3CC)CC1)C(F)(F)F (stereo not given)
inactive: ACHN 15.7 µM | BT-549 19.4 µM | CAKI-1 23.7 µM | COLO 205 18.1 µM | DU-145 25.4 µM | EKVX 17.1 µM | HOP-62 20.5 µM | KM12 11.7 µM | LOX IMVI 17.7 µM | MDA-MB-231 15.8 µM | MDA-MB-435 14.5 µM | NCI/ADR-RES 39.8 µM | OVCAR-3 14.8 µM | OVCAR-4 18.6 µM | RXF 393 18.2 µM | SF-539 15.2 µM | SK-MEL-2 13.5 µM | SK-OV-3 23.9 µM | SNB-19 29.4 µM | UACC-62 16.4 µM

COC(=O)c1ccc(CCc2cc(O)c(Br)cc2O)cc1
inactive: ACHN 13.2 µM | BT-549 4.63 µM | CAKI-1 10.3 µM | COLO 205 12.6 µM | DU-145 14.4 µM | EKVX 16.9 µM | HOP-62 17.6 µM | KM12 15.1 µM | LOX IMVI 13.7 µM | MDA-MB-231 15.1 µM | MDA-MB-435 8.49 µM | NCI/ADR-RES 14.3 µM | OVCAR-3 8.02 µM | OVCAR-4 11.2 µM | RXF 393 16.6 µM | SF-539 8.3 µM | SK-MEL-2 18.9 µM | SK-OV-3 25.4 µM | SNB-19 17.4 µM | UACC-62 14.1 µM

OCCNC1c2cc(Cl)ccc2-c2c(Cl)cc(Cl)cc21 (stereo not given)
inactive: ACHN 25.9 µM | BT-549 > 100 µM | CAKI-1 30.3 µM | COLO 205 54.8 µM | DU-145 > 100 µM | EKVX 11.6 µM | HOP-62 41.2 µM | KM12 32.7 µM | LOX IMVI 34.5 µM | MDA-MB-231 22 µM | MDA-MB-435 35.6 µM | NCI/ADR-RES 45.9 µM | OVCAR-3 29.8 µM | OVCAR-4 32.1 µM | RXF 393 40.2 µM | SF-539 47.9 µM | SK-MEL-2 15.2 µM | SK-OV-3 42 µM | SNB-19 39.4 µM | UACC-62 34 µM

COC(=O)c1c(CC(Cc2ccc3c(c2)CCCC3)C(=O)OC)ccc2c1CCCC2 (stereo not given)
inactive: ACHN 45.1 µM | BT-549 > 100 µM | CAKI-1 > 100 µM | COLO 205 19.9 µM | DU-145 > 100 µM | EKVX 19.5 µM | HOP-62 > 100 µM | KM12 40.3 µM | LOX IMVI 43 µM | MDA-MB-231 > 100 µM | MDA-MB-435 42.4 µM | NCI/ADR-RES > 100 µM | OVCAR-3 > 100 µM | OVCAR-4 5.68 µM | RXF 393 60.5 µM | SF-539 > 100 µM | SK-MEL-2 > 100 µM | SK-OV-3 39.2 µM | SNB-19 > 100 µM | UACC-62 > 100 µM

O=c1[nH]c(=O)n(C2COC(CO)C2O)cc1F (stereo not given)
inactive: ACHN 38.5 µM | BT-549 32.7 µM | CAKI-1 > 100 µM | COLO 205 25.1 µM | DU-145 29.8 µM | EKVX 89.9 µM | HOP-62 17.7 µM | KM12 > 100 µM | LOX IMVI 11 µM | MDA-MB-231 > 100 µM | MDA-MB-435 48.9 µM | NCI/ADR-RES 72.1 µM | OVCAR-3 15.5 µM | OVCAR-4 > 100 µM | RXF 393 2.94 µM | SF-539 3.52 µM | SK-MEL-2 61.4 µM | SK-OV-3 74.6 µM | SNB-19 > 100 µM | UACC-62 22.1 µM

O=C(c1cccs1)N(C(=S)OCCOc1ccccc1)c1ccccc1
inactive: ACHN 27.7 µM | BT-549 20.8 µM | CAKI-1 27.2 µM | COLO 205 24.8 µM | DU-145 28.6 µM | EKVX 29.5 µM | HOP-62 28.2 µM | KM12 26 µM | LOX IMVI 17.1 µM | MDA-MB-231 24.3 µM | MDA-MB-435 17 µM | NCI/ADR-RES 20.9 µM | OVCAR-3 21 µM | OVCAR-4 29.8 µM | RXF 393 23.6 µM | SF-539 34.3 µM | SK-MEL-2 21.3 µM | SK-OV-3 30.3 µM | SNB-19 29.4 µM | UACC-62 18.2 µM
